The text below walks through data of a melting point compilation (Tetko et al.; mined from patent text by program, amines drawn as free bases though some values may be those of a salt).

What is called melting point is the temperature of the solid-liquid transition.

Compound `CC1Cc2cc3c(cc2C(c2ccc(N)cc2)=NN1C(=O)Nc1ccccc1)OCO3` (stereo unspecified) returned a melting point of 118 to 120 °C.

In turn, `CCC(=O)c1cc(C(=O)OC)c(N)cc1C(F)(F)F` showed a melting point of 141 to 144 °C.

As to `CC(C)(C)OC(=O)NCc1ccc(OCCC2Oc3ccccc3N(Cc3ccc(Cl)cc3)C2=O)cc1` (stereo unspecified), the melting point was in the range of 121 to 122 °C.

Compound `CCOC(=O)C(S)CC(=O)c1ccc(Oc2ccc(Cl)cc2)cc1` (stereo unspecified) registered a melting point of 75.5 to 76.5 °C.

`COc1cc(OC)c2c(=O)[nH]c(-c3ccc4[nH]c(CO)cc4c3)nc2c1` registered a melting point of 264 to 265 °C.

Compound `O=C(Nc1ccccc1)C1C(=O)Sc2ccccc21` (stereo unspecified) displayed a melting point of 140 to 142 °C.

In the case of `CN(C(=O)c1ccc(Cl)c(Cl)c1)c1ccccc1CCC(=O)O`, the melting point lay within 149 to 150 °C.

The compound `O=Cc1c(-c2ccc(Cl)cc2)sc2ccccc12` displayed a melting point of 99.7 to 101 °C.

As for `COc1ccc(C2NC(=O)C2OC(C)=O)cc1` (stereo unspecified), the melting point was in the range of 110 to 111 °C.

Turning to `COCCC(=O)N[C@H]1CC[C@H](CCN2CCC(c3ccc(F)c4occc34)CC2)CC1`, the melting point turned out to be 177 °C.

`Clc1ccccc1-c1nc(-c2ccccc2)c(-c2ccccc2)n1Br` displayed a melting point of 103 to 105 °C.

`CC1(C)OC(c2ccc(S(N)(=O)=O)cc2F)=C(c2ccccc2)C1=O` came in with a melting point of 79 to 81 °C.

`Nc1cc(OCC(O)CO)ccc1[N+](=O)[O-]` (stereo unspecified) registered a melting point of 139 °C.

In turn, `Cn1c(=O)c2sccc2n2cnc(-c3nc(C4CC4)no3)c12` yielded a melting point of 206 to 207 °C.

As for `CS(=O)(=O)Nc1cc(C(c2cc(F)ccc2F)S(=O)(=O)c2ccc(Cl)cc2)c(F)cn1` (stereo unspecified), the melting point lay within 217 to 219 °C.

In the case of `CCCCCCCCCCCCCCCC(=O)C(O)(O)C(=O)OC(C)(C)C`, the melting point was in the range of 49 to 51 °C.

`CCOC(=O)c1c(C(=O)O)ccc(OC)c1OC` displayed a melting point of 148 to 149 °C.

Take `COc1ccc(/C=C/c2ccncc2)cc1O`: the melting point was in the range of 196 to 199 °C.

The compound `CN(C)c1ccc(C(O)C#Cc2ccc(C(=O)O)cc2)cc1C(C)(C)C` (stereo unspecified) returned a melting point of 139 °C.

On to `NC(=O)c1cnc2n(c1=O)CCC2`, for which the melting point came out at 293 °C.

Compound `COc1cc2c3c(cccc3c1OC)C(=O)N(O)C2=O` yielded a melting point of 226 to 228 °C.

Turning to `CCCCCCCC(O)C1(C)OC(C)=C(O)C1=O` (stereo unspecified), the melting point is 97 to 98 °C.

`CCCCc1nc(SCC)c(CO)n1Cc1ccc(-c2ccccc2C(=O)O)cc1` registered a melting point of 160 °C.

As for `CCOP(=O)(OCC)C(OS(=O)(=O)c1ccc(C)cc1)c1cccc([N+](=O)[O-])c1` (stereo unspecified), the melting point lay within 90 to 92 °C.

Turning to `C[Si](C)(C)c1cccc(Br)c1C(=O)O`, the melting point was in the range of 139 to 141 °C.

For `N#Cc1cnc2sc(C#Cc3ccccn3)cc2c1Nc1ccc2[nH]ccc2c1`, the melting point was over 260 °C.

As to `CCCc1cc(OCC)c2c(c1OC)S(=O)(=O)N(CSc1nnnn1-c1ccccc1)C2=O`, the melting point fell in the range of 110 to 111 °C.

In the case of `CCCCCCC1CCC2C(CCC3CC(=O)CCC32)C1` (stereo unspecified), the melting point turned out to be 49 °C.

For `CCOC(=O)c1cn(C)c2cnc3cc(F)c(N4CC5(C)CC4CC(C)(C)C5)cc3c2c1=O` (stereo unspecified), the melting point was 187 °C.

For the compound `CCN(C)C(=O)Nc1c(C(=O)c2ccccc2)[nH]c2cc(Cl)ccc12`, the melting point fell in the range of 159 to 161 °C.

In turn, `CC(=O)Nc1ccc(S(=O)(=O)CC(=O)C23CC4CC(CC(C4)C2)C3)cc1` gave a melting point of 151 to 152 °C.

In the case of `CCCC[C@H](NC(=O)[C@H](CC(C)C)NC(=O)c1ccccc1F)C(=O)CSCc1ccco1`, the melting point was in the range of 102 to 103 °C.

Take `CNc1cc(N)c(CCCN)c2c1C(=O)c1ccccc1C2=O`: the melting point was 142 °C.

`CC(C)(C(=O)Nc1cccc(Cl)c1)N1COC(CBr)=C(c2ccccc2)C1=O` came in with a melting point of 89.8 to 90.8 °C.

In turn, `CCOC(=O)CC1NCCN(CCc2c[nH]c3ccccc23)C1=O` (stereo unspecified) registered a melting point of 80 °C.

Take `COc1cc(C(=O)C(F)(F)F)ccc1OCCCN1CCC(c2noc3cc(F)ccc23)CC1`: the melting point fell in the range of 78 to 80 °C.

As for `CCOC(=O)c1cn2c3c(c(C(C#N)C(=O)OCC)c(F)cc3c1=O)CCN2C` (stereo unspecified), the melting point lay in the range of 153 to 154 °C.

`CSc1ccc(-c2cnn(Cc3ccccc3)c(=O)c2Br)cc1` had a melting point of 115 to 118 °C.

`O=C1CCC(c2cccc(C(F)(F)F)c2)=NN1` registered a melting point of 211 to 214 °C.

Compound `Cn1ncnc1-c1oc2cccc(OCCc3ccc(F)cc3)c2c(=O)c1O` displayed a melting point of 215 to 217 °C.

`CC(C)c1cccc2c1N(CC(=O)N1CC3CCC(CC3)C1)C(=O)C(NC(=O)Nc1cccc(-c3nnn[nH]3)c1)N=C2c1ccccc1F` (stereo unspecified) had a melting point of 212 to 222 °C.

`CC1=C(C(=O)OCCOc2ccccc2)C(c2cccc(Cl)c2C)C2=C(CNCC2=O)N1` (stereo unspecified) gave a melting point of 233 to 235 °C.

Compound `O=C1N(Cc2ncccc2C(F)(F)F)c2ccccc2C12COc1cc3c(cc12)OC(F)(F)O3` (stereo unspecified) yielded a melting point of 200 to 201 °C.

For the compound `ClCc1coc(-c2cc(Cl)cs2)n1`, the melting point lay within 72 to 73 °C.

`CCc1nc2c(cnn2CC)c(NC2CCOCC2)c1CNC(=O)c1cccc(C(=O)NCc2ccc(C)c(-c3cccc(CN4CCN(C)CC4)c3)c2)c1` came in with a melting point of 121 to 124 °C.

Compound `CCOC(=O)/C=C/c1ccc(OCCCOC)cc1Oc1ncc(C(F)(F)F)cc1Cl` yielded a melting point of 86.4 to 86.5 °C.

As for `CC(C)(C)OC(=O)N[C@@H](CC(=O)OCc1ccccc1)C(=O)N[C@@H](Cc1ccccc1)C(=O)OCc1ccccc1`, the melting point is 93 to 94 °C.

`CC(=O)c1cc(C(F)(F)F)cc(S(N)(=O)=O)c1` displayed a melting point of 157 to 159 °C.

Consider `COc1ccc(-c2cncc(C#N)c2Nc2ccc3[nH]ccc3c2C)cc1OC`, for which the melting point lay within 130 to 133 °C.

In turn, `CC(C)C1(C)NC(c2ccc(CO)cn2)=NC1=O` (stereo unspecified) yielded a melting point of 101 to 104 °C.

As for `N#Cc1ccc(N(Cc2ccc(Br)cc2)n2cnnc2)cc1`, the melting point amounted to 203 °C.

In turn, `COc1ccc2c3c1OC1C(=O)CC(C)C4C(C2)N(C#N)CCC314` (stereo unspecified) yielded a melting point of 237 to 241 °C.

The compound `Cc1cc(NC(=O)OC(C)(C)C)c(N)cc1-c1ccccc1` displayed a melting point of 122 °C.

`CC(SSc1ccccc1C(=O)Nc1ccc(S(N)(=O)=O)cc1)C(=O)NCC(=O)O` (stereo unspecified) gave a melting point of 254 to 256 °C.

For the compound `CCC(=O)OCOC(=O)Oc1ccc([N+](=O)[O-])cc1`, the melting point was in the range of 35 to 36 °C.

With `Clc1c2ccccc2nc2c1oc1ccccc12`, the melting point fell in the range of 158 to 159 °C.

Regarding `COC(=O)/C=C/c1ccc(OCCCC(=O)OC)cc1O`, the melting point lay within 108 to 112 °C.

Take `CCCCN(O)C1CC(C)(C)N(C(C)=O)C(C)(C)C1`: the melting point lay in the range of 52 to 54 °C.

`O=S1(=O)CCCS(=O)(=O)N1F` yielded a melting point of 171 to 172 °C.

Compound `N#CC(O)c1c(Cl)cccc1Cl` (stereo unspecified) displayed a melting point of 90 °C.

In turn, `CCCc1c(OCCCS(=O)(=O)c2ccc(CC(=O)OC)c(Cl)c2Cl)ccc(C(C)=O)c1O` returned a melting point of 115 to 118 °C.

Consider `Cc1cc2c(cc1C13CC1CCC3=Cc1ccc(C(=O)O)cc1)C(C)(C)CCC2(C)C` (stereo unspecified), for which the melting point is 274 to 275 °C.

Consider `COc1cccc(OC2CN([C@H]3CC[C@@H](c4c[nH]c5ccc(F)cc54)CC3)C2)c1`, for which the melting point is 125 to 127 °C.

`O=C(O)C(CCN1C(=O)c2ccccc2C1=O)Oc1ccc(-c2ccc(-c3c(Cc4ccccc4)oc4ccccc34)cc2)cc1` (stereo unspecified) yielded a melting point of 182 to 184 °C.

With `Cc1ccc(-n2c(-c3ccc(Br)cc3)ccc2-c2ccc(Br)cc2)cc1`, the melting point was in the range of 262 to 264 °C.

On to `CCOC(=O)C1=CC(C(=O)c2ccccc2O)=CN2CCc3c([nH]c4ccc(OC)cc34)C12C(=O)OCC` (stereo unspecified), for which the melting point is 212 °C.

With `NCCNc1n[nH]c2ncnc(Nc3cccc(Cl)c3)c12`, the melting point was found to be 200 °C.

`CCCCCCCCc1ccc(C(=O)Cc2cccc(C#N)c2)cc1` registered a melting point of 59 to 64 °C.

Turning to `CCOCc1nc2c(N)nc3c(c2n1CC1(O)CCCC1)NCCC3`, the melting point lay in the range of 207 to 208 °C.

`Cn1c(-c2ccc(-c3cccnc3)cc2)cnc1[C@H](Cc1ccccn1)N(C=O)c1cc2cc(Cl)ccc2o1` returned a melting point of 158 to 160 °C.

The compound `CCOC(=O)c1c(Cn2cncn2)nc2sc(C)c(C)c2c1-c1ccc2c(c1)OCO2` showed a melting point of 109 to 110 °C.

Compound `Cc1c(F)c(F)c(C(=O)NC2CCCCCC2)c(F)c1F` came in with a melting point of 164 to 165 °C.

In turn, `N#Cc1c2ccccc2nc2ccc(Cl)cc12` registered a melting point of 208 °C.

In the case of `CC(C)(C)c1cc(CCc2ccccc2NC(=O)NCCCc2cccs2)cc(C(C)(C)C)c1O`, the melting point is 150 °C.

On to `NC(=O)c1ccnc(OCc2nc3cc(Cl)ccc3s2)c1`, for which the melting point lay in the range of 220 to 222 °C.

The compound `NC(CC(=O)O)c1ccc(OC(F)(F)F)cc1` (stereo unspecified) returned a melting point of 258 to 260 °C.

Turning to `Cn1ncc(/C=C/C(=O)Nc2ccc(Cc3nccs3)cc2)c1-c1ccc(F)cc1`, the melting point is 209 to 210 °C.

Take `Cc1c(C)c2c(c(C)c1NCc1ccccc1)C(c1ccccc1)CO2` (stereo unspecified): the melting point is 107 to 108 °C.

Take `COc1ccc(C(C#N)C2(O)CCCCC2)cc1` (stereo unspecified): the melting point was 125 to 127 °C.

Compound `CCOC(=O)C(=O)c1ccccc1Nc1c(Cl)cccc1Cl` returned a melting point of 84 to 85.5 °C.

`CC(C)c1ccc(-n2c(CC(=O)O)c(C(=O)O)c3cc(Oc4ccc(C(F)(F)F)cc4)ccc32)cc1` yielded a melting point of 250 to 252 °C.

For the compound `Cc1cccc(C)c1NC(=O)Nc1sc2ccc(Cl)cc2c1-c1ccccc1Cl`, the melting point lay in the range of 203 to 204 °C.

As to `O=C(O)COc1c(Br)cc(-c2ccc(-c3c(Cc4ccccc4)sc4ccccc34)cc2)cc1Br`, the melting point was 183 to 185 °C.

Turning to `COc1cc2c(Nc3ccc(Sc4ccccn4)c(Cl)c3)c(C#N)cnc2cc1N1CCC(N2CCCC2)CC1`, the melting point is 203 to 205 °C.

`C=CC(=O)NCCOC(C)(C)OCCNC(=O)C=C` returned a melting point of 94 to 95 °C.

Compound `COc1cc(CC(=O)O)ccc1OCc1nc(-c2ccco2)oc1C` yielded a melting point of 162 to 164 °C.
